Results on 1 compound are retold here after patent US9850470B2, “Polyene-specific glycosyltransferase derived from Pseudonocardia autotrophica” (INHA-INDUSTRY PARTNERSHIP INSTITUTE, priority 2013, dated 2017).

The nature of data set [1]: solubility of NPP compared with nystatin. It is filed as physicochemical.
A short description of data set [2]: hemolytic activity of NPP compared with nystatin. Format: cell-based.
Setting [3] is: relative to nystatin which contains only a saccharide.
The mark [4] stands for this setting: relative to nystatin, which contains only mycosamine.

As for `CC(=O)NC1C(OC2C(C)OC(OC3/C=C/C=C/C=C/C=C/CC/C=C/C=C/C(C)C(O)C(C)C(C)OC(=O)CC(O)CC(O)CC(O)CCC(O)C(O)CC4(O)CC(O)C(C(=O)O)C(C3)O4)C(O)C2N)OC(CO)C(O)C1O` (stereo not shown) [NPP, nystatin-like polyene (NPP)], in data set [1] (setting [3]), the “solubility compared with nystatin (in words)” value is reported as “higher solubility”. For the same compound, in data set [1] (setting [4]), the “higher solubility than nystatin” value is on record as “more than 300 fold”. The “hemolytic activity compared with nystatin (in words)” value in data set [2] (setting [3]) is “lower hemolytic activity”. Also, the “lower hemolytic activity than nystatin” value in data set [2] (setting [4]) amounted to 10 fold.
